Where a name gives a salt, the structure may show the parent alone.

Data set [1] has as its system human PBMC of healthy donors. It counts as cell-based. The conditions noted are these: 7 μg/ml free CPT, 2 h.
Protocol: For isolation of human peripheral blood mononuclear cells from healthy donors (PBMC) heparinized human peripheral blood was obtained from healthy donors and the mononuclear cells (PBMC) were isolated by the density sedimentation on Histopaque-1077 (400×g, 30 min at RT) and washed and resuspended in RPMI 1640 supplemented with 10% FCS, 2 mM Lglutamine, penicillin (100 U/ml), and streptomycin (100 mg/ml) (30). […] Inhibition of 3-(4, 5-dimethylthiozol-2-yl)-2, 5-diphenyltetrazolium bromide (MTT) reduction to insoluble formazan by mitochondrial dehydrogenase was used as a viability parameter for the cells and compared with untreated control. After treatment with drug for 2 or 4 h the cells were washed with 20 mM PBS and incubated with 2 mg/ml MTT solution for 4 h at 37° C. The reduced formazan was solubilised in DMSO and plates were analyzed by determining the A550 on Thermo [sequence]
Data set [2] deals with B16F10 cells. Kind of data set: JC-1 mitochondrial membrane potential flow cytometry. The data set is classed as cell-based, murine. The settings on record: 7 μg/ml of free CPT, 2 h. On the procedure: Supernatant was carefully removed. 0.5 ml of freshly prepared 5,5′,6,6′-tetrachloro-[…] Iodide (JC-1) working solution containing 1:100 JC-1 stain was added to each pellet. The pellets were resuspended. Cells were incubated in JC-1 working solution for 10-15 min at 37° C. in a CO2 incubator. Cells were washed twice following incubation. Cells were then analyzed by flow cytometry. (BD™ MitoScreen Flow Cytometry Mitochondrial Membrane Potential Detection Kit) (33).
(In flow cytometry, cells or beads pass a laser one at a time.)

In data set [3] the test system is Ehrlichs ascites carcinoma cells (EAC). It counts as cell-based, mouse. The conditions noted are these: 7 μg/ml free CPT, 2 h.
Protocol: (§1) Murine melanoma cell line B16F10, colorectal adenocarcinoma SW480 cell line, human colon carcinoma HCT116 cell line, rat brain astrocytes and rat C6 glioma cell lines were maintained in Dulbecco Modified Eagle Medium (DMEM) supplemented with 10% fetal bovine serum, sodium pyruvate, 2 mM L-glutamine, penicillin, and streptomycin. Murine macrophage cell line RAW 264.7, MOLT-4 cell line (derived from human acute lymphoblastic leukemia), human leukemia cell lines K-562 and human lymphoma cell line U-937 were maintained in RPMI 1640 medium supplemented with 10% fetal bovine serum, sodium pyruvate, 2 mM L-glutamine, penicillin, and streptomycin. The cells were incubated at 37° C. in a humidified atmosphere of 5% CO2 in air (10). The Ehrlichs ascites carcinoma cells (EAC) were maintained in vivo in Swiss albino mice, by intraperitoneal (i.p.) transplantation of 2×10^6 cells/mouse every 15 days. Cells were obtained from the peritoneal fluid after 15 days, washed in 0.2M PBS and resuspended in RPMI medium supplemented with 10% FBS.
(§2) Inhibition of 3-(4, 5-dimethylthiozol-2-yl)-2, 5-diphenyltetrazolium bromide (MTT) reduction to insoluble formazan by mitochondrial dehydrogenase was used as a viability parameter for the cells and compared with untreated control. […] The reduced formazan was solubilised in DMSO and plates were analyzed by determining the A550 on Thermo [sequence]
Another data set deals with U937 cells. The data set is classed as cell-based, human. The settings on record: 7 μg/ml free CPT, 2 h.
For the next data set, the system named is SW480 cells. Briefly: MTT viability assay. The data set is classed as cell-based, human. The conditions noted are these: 7 μg/ml free CPT, 2 h. On the technique in general: Tetrazolium assays rely on reduction of a dye to a coloured formazan, in cell work by metabolically active cells.
Data set [4] relates to B16F10 cells. It counts as cell-based, murine. The settings on record: 2 h.
Protocol: Murine melanoma cell line B16F10, colorectal adenocarcinoma SW480 cell line, human colon carcinoma HCT116 cell line, rat brain astrocytes and rat C6 glioma cell lines were maintained in Dulbecco Modified Eagle Medium (DMEM) supplemented with 10% fetal bovine serum, sodium pyruvate, 2 mM L-glutamine, penicillin, and streptomycin. […] The cells were incubated at 37° C. in a humidified atmosphere of 5% CO2 in air (10).
Inhibition of 3-(4, 5-dimethylthiozol-2-yl)-2, 5-diphenyltetrazolium bromide (MTT) reduction to insoluble formazan by mitochondrial dehydrogenase was used as a viability parameter for the cells and compared with untreated control. After treatment with drug for 2 or 4 h the cells were washed with 20 mM PBS and incubated with 2 mg/ml MTT solution for 4 h at 37° C.
For a further data set, the system named is rat C6 glioma cells. The conditions noted are these: 7 μg/ml free CPT, 2 h.
The test system of data set [5] is B16F10, K562, U937, rat C6 glioma, EAC, MOLT4 and SW480 cell lines. Kind of data set: In vitro EC50 of free anticancer drugs by MTT. The data set is classed as cell-based. The settings on record: free drug, 2 h treatment. The protocol: The cells were treated with PC:SA liposome (20-350 μg/ml with respect to PC) or free DOX (500-1000 μg/ml) and free CAMPTOSAR (irinotecan hydrochloride, which is a semisynthetic derivative of camptothecin) (500-10,000 μg/ml). After 2 h of treatment effects on cell viability were determined by MTT assay. EC50 values were determined by nonlinear regression analysis of concentration-response data.

Protocol for SW480 cells: as §1, §2
Protocol for U937 cells: as §1, §2
Protocol for rat C6 glioma cells: as §1, §2

For orientation: viability means the share of living cells, or the viability signal relative to a control. Regarding `CC[C@@]1(O)C(=O)OCc2c1cc1n(c2=O)Cc2cc3ccccc3nc2-1` [CPT, camptothecin], the killing effect entry (in data set [1]; in the data set on U937 cells; with SW480 cells) was “no killing effect” each time. Also, the “green fluorescing monomers (JC-1)” value in the data set with B16F10 cells [2] turned out to be 7%. Moreover, the viability in data set [3] is on record as 56%; in the data set with B16F10 cells [4] (7 μg/ml free CPT), 38%; in the data set with rat C6 glioma cells, 71%. The cells survived result with B16F10 cells [4] (free CPT 3.9 μg/ml (REV equivalent) and 6.1 μg/ml (DRV equivalent)) is on record as “about 38%”.

Usually EC50 stands for the concentration that produces a half-maximal response. Read a low EC50 as a more potent agent. Compound `CCc1c2c(nc3ccc(OC(=O)N4CCC(N5CCCCC5)CC4)cc13)-c1cc3c(c(=O)n1C2)COC(=O)[C@]3(O)CC` [irinotecan hydrochloride] returned an EC50 in data set [5] of 800 to 5000 µg/mL.

Values taken from patent US10426728B2, “Synergistic liposomal formulation for the treatment of cancer” (priority 2013, dated 2019).
